The source of these data is patent publication US20240423204A1, “METHOD AND USE OF AN ENANTIOMER OF 3,4-DIHYDROXYPHENYLALANINE (DOPA) FOR ENHANCING PLANT ATTRACTIVENESS TO BENEFICIAL INSECTS” (BIOBAB R&D, S.L., priority 2021, published 2024).

The subject of experiment [1] is Aphidius ervi. In words: Behavioral assay in two-way olfactometer, bean plants (Vicia faba) treated by soil application. The conditions noted are these: 10 min, Vicia faba 3-4 weeks, versus clean plant. Type of experiment: in vivo. Here is the method:
Broad bean seeds (Vicia faba cv Aguadulce supersimonia) were planted individually in plastic pots (6×6×9 cm) filled with Traysubstrat topsoil (Klasmann-Deilmann GmbH) or a mixture of agriperlite, vermiculite, and sand (1:1:1) and grown in an environmental chamber (24±2° C., 45±10% RH, 14 h: 8 h L: D).
For this example, bean plants of 3-4 weeks were used. Plants were treated by soil application of the two isomers of DOPA: 3,4-dihydroxy-L-phenylalanine (Alfa Aesar, CAS Number 59-92-7) and 3,4-dihydroxy-D-phenylalanine (Sigma Aldrich, CAS Number 5796-17-8).
Untreated plants were also used as control.
The attractiveness of beneficial insects, specifically Aphidius ervi, towards a bean plants treated with the isomers of DOPA compared to clean bean plant (control) was evaluated in an olfactometer.
The behavioral response of A. ervi were evaluated over 10 min in a two-way olfactometer. Only active insects, i.e. insects that spent at least 60 s in the treatment (trt) and/or control (cnt) arm of the olfactometer were taken into account.
The results obtained in this example are expressed as a percentage of residence time in each olfactometer arm where the parasitoid remained, relative to the total time spent in the two arms. Paired t-tests were conducted using R (free software environment for statistical computing and graphics).

Experiment [2] has as its system bean plants (Vicia faba). In words: VOC induction assay on bean plants (Vicia faba) in soil/vermiculite. Type of experiment: in vivo. The conditions noted are these: 10 μg in 30 mL, 24 h, 6-methyl-5-hepten-2one, cis-3-hexen-1-ol, cis-3-hexenyl acetate, ocimene. How it is done:
Broad beans (Vicia faba cv Histal) plants were grown in a mixture of sterile soil/vermiculite (7:3) for 10 days, and treated with L-DOPA (10 μg), D-DOPA (10 μg) or HPLC water (control, 10 μl) dissolved in 30 mL of distilled water.
(§1) After 24 h, the volatile organic compounds (VOCs) emitted from the plant were collected through a dynamic headspace.
(§2) The bean plants were enclosed in a glass vessel with a volume of 3.2 I. The bottom of the vessel was enclosed around the top of the pot. Air that had been purified by passage through an activated charcoal filter (BDH, 10-14 mesh) was pushed into (750 ml·min^−1) and pulled (700 ml·min^−1) out of the vessel. VOCs were trapped onto Porapack™ (Porous Polymer Adsorbent) 50/80 mesh (50 mg; Supelco, Bellefonte, USA) held in glass tubing (5 mm outer diameter) by two plugs of silanised glass wool. The Porapack™ tube was conditioned by washing with redistilled diethyl ether (2 ml) and heating at 130° C. for 4 h under a stream of purified nitrogen. […]
(§3) For the analysis, four samples (1 μL) from each treatment (L-DOPA, D-DOPA and Control) were analyzed on an Agilent 7820A Gas Chromatograph (Agilent Technologies, Santa Clara, California, USA), equipped with a cool column injector, flame ionization detector (FID), and a HP-1 capillary GC column (50 m×0.32 mm internal diameter×0.52 μm film thickness). […]

The subject of experiment [3] is bean plants (Vicia faba). Description: VOC induction assay on bean plants (Vicia faba) in hydroponic medium. Type of experiment: in vivo. The conditions noted are these: 10 μg. Here is the method:
Broad beans (Vicia faba cv Histal) were potted in sterile vermiculite and kept in a glasshouse at 23° C. After 7 days, the seedlings were gently removed from the vermiculite, the cotyledons peeled and the roots rinsed with bidistilled water, carefully brushing away all soil particles. They were then placed in glass beakers containing a hydroponic solution made with Hoagland's modified basalt salt mixture, (MP, USA), and maintained in an environmental chamber at 23° C. Each beaker, containing three seedlings, was wrapped in aluminum foil to hold the plants in position and to prevent the light from reaching the roots. Every 4 days, the hydroponic solution in each beaker was renewed. After 10 days plants were treated with L-DOPA (10 μg), D-DOPA (10 μg) or HPLC water (control, 10 μl) dissolved in 30 mL of distilled water.
(§4) The bean plants were enclosed in a glass vessel with a volume of 3.2 I. The bottom of the vessel was enclosed around the top of the pot. Air that had been purified by passage through an activated charcoal filter (BDH, 10-14 mesh) was pushed into (750 ml·min^−1) and pulled (700 ml·min^−1) out of the vessel. VOCs were trapped onto Porapack™ (Porous Polymer Adsorbent) 50/80 mesh (50 mg; Supelco, Bellefonte, USA) held in glass tubing (5 mm outer diameter) by two plugs of silanised glass wool. The Porapack™ tube was conditioned by washing with redistilled diethyl ether (2 ml) and heating at 130° C. for 4 h under a stream of purified nitrogen.
(§5) VOCs collected on the Porapak™ were eluted with 750 μL of redistilled diethyl ether and the samples were stored at −20° C. until analysis.
(§6) For the analysis, four samples (1 μL) from each treatment (L-DOPA, D-DOPA and Control) were analyzed on an Agilent 7820A Gas Chromatograph (Agilent Technologies, Santa Clara, California, USA), equipped with a cool column injector, flame ionization detector (FID), and a HP-1 capillary GC column (50 m×0.32 mm internal diameter×0.52 μm film thickness). Hydrogen was the carrier gas. The oven temperature was maintained at 30° C. for 0.1 min, then programmed to increase at 10° C.·min^−1 until 250° C., and then held for 38 min. Tentative identifications were made by Kovats' Index values and GC peak enhancement on GC columns of HP-1, using authentic samples of chemicals compounds.

Experiment [4] concerns bean plants (Phaseolus vulgaris). Description: VOC induction assay on bean plants (Phaseolus vulgaris) in hydroponic medium. The format is in vivo. The conditions noted are these: 10 μg, 24 h. Here is the method: Beans (Phaseolus vulgaris cv CGB0002) were sown in sterile vermiculite and kept in a glasshouse at 27° C. After 17 days, the seedlings were gently removed from the vermiculite. They were then placed in glass beakers containing 150 mL of hydroponic solution made with Hoagland's modified basalt salt mixture, (MP, USA), and maintained in an environmental chamber at 27° C. Each beaker, containing one seedling, was wrapped in aluminum foil to hold the plants in position and to prevent the light from reaching the roots. After 2 days plants were treated with L-DOPA (10 μg), D-DOPA (10 μg) or HPLC water (control, 10 μl).
as §1, §4, §5, §6

Experiment [5] relates to bean plant (Vicia faba) leaves. Description: Estimation of total phenolic content in bean plant (Vicia faba) leaves, Folin-Ciocalteu assay. The format is in vivo. The conditions noted are these: soil/vermiculite, 10 μg in 30 mL, 24 h. How it is done: The estimation of total phenolic content in bean plant leaves (Vicia faba) was based on the procedure developed by Ainsworth, E.A. et al. (2007) using Folin-Ciocalteu (F-C) reagent. F-C assay is commonly been used to assay total phenolic content. The F-C assay provides a convenient, rapid, and simple estimation of the content of total phenolics, and other oxidation substrates in plant extracts.
Broad bean (Vicia faba cv Histal) plants were grown in a mixture of sterile soil/vermiculite (7:3) for 10 days, and treated with L-DOPA (10 μg), D-DOPA (10 μg) or HPLC water (control, 10 μl) dissolved in 30 mL of distilled water. After 24 h harvest leaves material (approximately 20 mg) in screw-capped tubes and freeze immediately in liquid nitrogen.
To homogenize the tissue, three tungsten carbide beads and 2 ml of ice-cold 95% (vol/vol) methanol were added in each sample tube and insert samples into pre-cooled Teflon adaptors. Tissue was homogenized for 5 min at 30 Hz. […]
Finally, a […] sample, standard or blank from the assay tube were transferred to a clear 96-well micro-plate and the absorbance of each was measured at 750 nm using a spectrophotometer.
For calculate the total phenolic content, first a standard curve from the blank-corrected A750 of the gallic acid standards was calculated. […]

In experiment [6] the test system is bean plants (Phaseolus vulgaris). Description: VOC induction assay on bean plants (Phaseolus vulgaris) in soil. Type of experiment: in vivo. The conditions noted are these: 10 μg in 30 mL, 24 h, cis-3-hexenyl acetate and ocimene. How it is done: Bean (Phaseolus vulgaris cv CGB0002) plants were grown in sterile soil for 5 days, and treated with L-DOPA (10 μg), D-DOPA (10 μg) or HPLC water (control, 10 μl) dissolved in 30 mL of distilled water.
as §1, §2, §3

The subject of experiment [7] is wheat plants (Triticum monococcum). Description: VOC induction assay on wheat plants (Triticum monococcum) in soil. The format is in vivo. The conditions noted are these: 10 μg in 30 mL, 24 h. Here is the method:
Wheat (Triticum monococcum VAR Tocayo) plants were grown in sterile soil for 15 days (20 seeds per pot), and treated with L-DOPA (10 μg), D-DOPA (10 μg) or HPLC water (control, 10 μl) dissolved in 30 mL of distilled water.
as §1
as §2, with “wheat” for “bean”
as §3

The test system of experiment [8] is many plants. The conditions noted are these: allelochemical effect, Nishihara et al (2004); cited from earlier work.

Regarding `N[C@H](Cc1ccc(O)c(O)c1)C(=O)O` [D-DOPA, D-3,4-dihydroxyphenylalanine], the “residence time of A. ervi females on treated bean plants, higher than for untreated plants” value in experiment [1] is recorded as “approx. +20%”. Further, in experiment [2], the “concentration of VOCs (FID response) emitted by the plant versus control” value is “A change is observed”. Also, in experiment [3], the “concentration of 6-methyl-5-hepten-2one versus control” value is “A change is observed”, the “concentration of cis-3-hexenyl acetate versus control” value was “A change is observed” and the “concentration of ocimene versus control” value is given as “A change is observed”. Besides, in experiment [4], the “concentration of cis-3-hexen-1-ol versus control” value is given as “A change is observed” and the “concentration of ocimene versus control” value was “A change is observed”. In addition, the “total phenolic content versus untreated plants (control)” value in experiment [5] is given as “higher”.
For the compound `N[C@@H](Cc1ccc(O)c(O)c1)C(=O)O` [L-DOPA, L-3,4-dihydroxyphenylalanine], the “residence time of A. ervi females on treated bean plants, higher than for untreated plants” value in experiment [1] was “approx. +20%”. The “concentration of VOCs (FID response) emitted by the plant versus control” value in experiment [2] is “A change is observed”. For the same compound, in experiment [3], the “concentration of 6-methyl-5-hepten-2one versus control” value is “A change is observed”, the “concentration of cis-3-hexenyl acetate versus control” value is reported as “A change is observed” and the “concentration of ocimene versus control” value is on record as “A change is observed”. The “concentration of VOCs (FID response) versus control” value in experiment [6] is “A change is observed”. In experiment [4], the “concentration of 6-methyl-5-hepten-2one versus control” value is reported as “A change is observed”, the “concentration of cis-3-hexen-1-ol versus control” value is “A change is observed”, the “concentration of cis-3-hexenyl acetate versus control” value is given as “A change is observed” and the “concentration of ocimene versus control” value is given as “A change is observed”. Further, in experiment [7], the “concentration of ocimene versus control” value is given as “A change is observed”. Further, the “total phenolic content versus untreated plants (control)” value in experiment [5] is on record as “higher”. Also, in experiment [8], the “growth of plants (especially radicle and hypocotyl)” value is given as “reduced the growth”.
